# Laboratory results from patent US20180125796A1, “TREATMENT OF MYCOBACTERIAL INFECTION” (priority 2015, published 2018).
# Test system: NPC1
# Assay type: cell-based, Chinese Hamster
substance,measurement,setting,value
trehalose dimycolate [TDM],resistance to phenotype induction by TDM versus extent of NPC1 overexpression,,cells over-expressing NPC1 by 15-fold were more resistant than those over-expressing NPC1 5-fold
same,"induction of NPC cellular phenotypes by TDM in CHO cells overexpressing NPC1, versus wild-type cells",FIG. 10B,more resistant to induction of NPC cellular phenotypes than wild-type cells
